Assay results: patent publication US20220175774A1, “Bioavailable Oral Dosage Form Of Tyrosine-Kinase Inhibitor” (Alembic Pharmaceuticals Limited, priority 2020, published 2022)

Assay: Stability study according to ICH guidelines
Format: physicochemical
Procedure: The total impurity content is measured after synthesis of the compound and compared with the measured total impurity content after storage for a designated period of time. […] Stability studies were conducted, according to the ICH guidelines, for 6 months at accelerated condition (40° C./75% RH) and at room temperature.

Cc1nc(Nc2ncc(C(=O)Nc3c(C)cccc3Cl)s2)cc(N2CCN(CCO)CC2)n1 [N-(2-chloro-6-methylphenyl)-2-[[6-[4-(2-hydroxyethyl)-1-piperazinyl]-2-methyl-4-pyrimidinyl]amino]-5-thiazolecarboxamide]
total impurity content after storage (about 6 months at about 40° c. and about 75% RH): less than 4% | total impurity content (at 0 days): less than 3%
